Assay results as given in patent publication US12564580B2, “Mitochondria-targeted isoketal/isolevuglandin scavengers and uses thereof” (Vanderbilt University, priority 2020, dated 2026).

How the values were obtained:
[1] = tested on: C57Bl/6J mice, Ang II-induced hypertension; assay: Blood pressure in angiotensin II model of hypertension (tail-cuff and telemetry); format: in vivo, mouse; conditions: same molar dose of untargeted 2HOBA (0.17 mmol/L) in drinking water
Description: FIGS. 10A-D show the effect of mito2HOBA on angiotensin II-induced hypertension and accumulation of mitochondrial isoLGs protein adducts. (A) Blood pressure tail-cuff measurements in male Sham or angiotensin II-infused mice supplied with mito2HOBA in drinking water (0.1 g/L) or equimolar amount of untargeted analog 2HOBA (0.17 mmol/L). (B) Telemetry studies of blood pressure in angiotensin II-infused mice supplied with mito2HOBA or plain water as a vehicle. (C) Representative LC/MS/MS chromatograms of isoLG-Lysyl-Lactam adduct; (D) isoLG-Lys-Lactam levels in kidney mitochondria isolated from Sham or angiotensin II-infused mice supplied with mito2HOBA. Results are mean±SEM. *P<0.01 vs Sham, **P<0.01 vs Ang II (n=8).
Hypertension was induced by angiotensin II ([…]) as described previously. To test the therapeutic potential of scavenging of mitochondrial isoLGs, wild-type C57B1/6J male and female mice (Jackson Labs) received saline or angiotensin II minipump placement, and provided with the plain water (vehicle) or mito2HOBA in the drinking water (0.1 g/liter). Blood pressure was monitored by the telemetry and tail-cuff measurements as previously described. The Vanderbilt Institutional Animal Care and Use Committee approved the procedures (Protocol M1700207). Simple randomization was used to select animals for sham, angiotensin II or mito2HOBA groups for equal chance of being allocated to treatment groups.
To test a functional role of mitochondrial isoLGs in hypertension, we used an Ang II model of hypertension, and monitored blood pressure by tail-cuff (FIG. 10A) and telemetry (FIG. 10B). […] Infusion of wild-type C57B1/6J mice with Ang II (0.7 mg/kg/day) increased systolic blood pressure to 162 mm Hg.

[2] = tested on: human aortic endothelial cells (HAEC); assay: Mitochondrial superoxide in human aortic endothelial cells stimulated with angiotensin II plus TNFα (mitoSOX HPLC); format: cell-based
Method: FIGS. 9A and B show the effect of mito2HOBA on mitochondrial superoxide and cardiolipin oxidation in human aortic endothelial cells induced by angiotensin II plus TNFα. (A) Mitochondrial superoxide was measured by HPLC analysis of mitoSOX-superoxide specific product, mito-2-hydroxyethidium (Mito-2OH-Et+). […] (B) Cardiolipin oxidation induced by Angiotensin II+TNFα measured my LC/MS. […] Data are mean±SEM. *P<0.01 vs Control, **P<0.01 vs Angiotensin II+TNFα (n=4).
Human aortic endothelial cells (HAEC) were purchased from Lonza (Chicago, IL) and cultured in EGM-2 medium supplemented with 2% FBS but without antibiotics. On the day before the study, the FBS concentration was reduced to 1%.
We tested if mito2HOBA reduces mitochondrial oxidative stress in human aortic endothelial cells (HAEC) stimulated with angiotensin II plus TNFα for 4-hours (FIG. 9). Indeed, supplementation of HAEC with mito2HOBA (50 nM) reduced mitochondrial superoxide production stimulated by TNF[…] and Ang II as measured by accumulation of specific superoxide-MitoSOX product, 2-OH-Mito-Ethidium.

complex I = assay: Complex I activity in mouse kidney mitochondrial lysate; conditions: mitochondrial lysates treated with a bolus of IsoLG
Method: (C) Mouse kidney mitochondrial lysate was acutely treated with DMSO (Control), ethanolamine, spermine, L-lysine, IsoLG (1.5 μM) or IsoLG modified-ethanolamine (IsoLG-ETN, 1.5 μM), -spermine (IsoLG-Sper, 1.5 μM), L-lysine (IsoLG-Lys, 1.5 μM), -phosphatidylethanolamine (IsoLG-PE, 1.5 μM) prior to measurements of complex I activity expressed as a % of Control (100%).
OXPHOS specific enzyme activities in submitochondrial particles (SMP) were measured using a Varian Cary 300 Bio UV/Vis spectrophotometer with temperature controlling cell holder. Briefly, SMP were prepared by sonication of isolated organelles. Complex I activity was monitored in triplicate samples as the reduction of 10 μM decylubiquinone at 272 nm by 15 μg of mitochondrial protein with 40 μM NADH.
To test this hypothesis, the present inventors studied the activity of complex I and complex II in mitochondrial lysates treated with a bolus of IsoLG.

[3] = tested on: Intact mouse kidney mitochondria, complex II respiration; assay: Respiration of isolated kidney mitochondria with complex II substrate succinate after acute IsoLG/IsoLG-PE treatment; format: biochemical; conditions: acute addition of a low dose (0.5 μM printed elsewhere in the source)
Method: FIGS. 1A-1C show acute treatment with IsoLG or IsoLG-PE impairs mitochondrial respiration. (A) Intact mouse kidney mitochondria were incubated (5 min) with ethanol as vehicle (Sham), IsoLG (20 μM) or IsoLG-PE (20 μM) and then diluted with respiration buffer 20-fold prior to addition of Glutamate and Malate, ADP (50 μM) and measurements of oxygen consumption in State III. *P<0.001 vs Sham, **P<0.03 vs IsoLG. (B) Oxygen consumption in the presence of complex I substrates Glutamate+Malate and ADP (State III) and Respiratory Control Ratio (State III/State IV, %) in intact kidney mitochondria treated with vehicle, IsoLG (1.5 μM) or IsoLG-PE (1.5 μM) in the respiration chamber. (C) State III respiration and Respiratory Control Ratio (State III/State IV, %) in presence of complex II substrate Succinate and ADP following addition of vehicle, IsoLG (1.5 μM) or IsoLG-PE (1.5 μM) in the respiration chamber.
Complex I is a key component of mitochondrial oxidative phosphorylation. Inactivation of complex I can lead to reduced ATP production and tissue damage. Addition of IsoLG to cells produces both protein—adducts and IsoLG-phosphatidylethanolamine adducts (IsoLG-PE) which can independently contribute to mitochondrial dysfunction. The present inventors tested whether IsoLG or IsoLG-PE could contribute to mitochondrial dysfunction. […]

[4] = tested on: Intact mouse kidney mitochondria, complex I-mediated respiration; assay: Respiration of isolated kidney mitochondria with complex I substrates glutamate+malate after acute IsoLG/IsoLG-PE treatment; format: biochemical
complex II [5] = biological target: complex II (Mus musculus, UniProt Q8K2B3+Q9CQA3+Q9CXV1+Q9CZB0); assay: Complex II activity in mouse kidney mitochondrial lysate; format: biochemical; conditions: mitochondrial lysates treated with a bolus of IsoLG
Chain of complex II (Mus musculus, UniProt Q8K2B3+Q9CQA3+Q9CXV1+Q9CZB0) (Q8K2B3 43-664): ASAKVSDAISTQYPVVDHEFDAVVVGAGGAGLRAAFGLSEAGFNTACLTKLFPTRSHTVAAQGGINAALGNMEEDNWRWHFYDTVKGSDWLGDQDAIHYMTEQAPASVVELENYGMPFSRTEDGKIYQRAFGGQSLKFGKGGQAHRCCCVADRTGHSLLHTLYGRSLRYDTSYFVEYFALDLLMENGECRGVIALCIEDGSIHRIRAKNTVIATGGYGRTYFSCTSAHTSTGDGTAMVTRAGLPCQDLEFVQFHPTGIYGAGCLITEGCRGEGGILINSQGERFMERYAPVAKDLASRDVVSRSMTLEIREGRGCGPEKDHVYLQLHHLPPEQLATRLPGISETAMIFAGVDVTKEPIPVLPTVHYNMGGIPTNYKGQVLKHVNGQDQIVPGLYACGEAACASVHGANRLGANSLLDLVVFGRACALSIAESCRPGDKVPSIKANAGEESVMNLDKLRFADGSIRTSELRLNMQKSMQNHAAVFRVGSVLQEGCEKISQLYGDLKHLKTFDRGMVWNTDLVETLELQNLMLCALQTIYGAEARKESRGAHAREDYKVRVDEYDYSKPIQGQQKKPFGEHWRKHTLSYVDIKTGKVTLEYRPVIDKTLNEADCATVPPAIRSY
Chain of complex II (Mus musculus, UniProt Q8K2B3+Q9CQA3+Q9CXV1+Q9CZB0) (Q9CQA3 31-282): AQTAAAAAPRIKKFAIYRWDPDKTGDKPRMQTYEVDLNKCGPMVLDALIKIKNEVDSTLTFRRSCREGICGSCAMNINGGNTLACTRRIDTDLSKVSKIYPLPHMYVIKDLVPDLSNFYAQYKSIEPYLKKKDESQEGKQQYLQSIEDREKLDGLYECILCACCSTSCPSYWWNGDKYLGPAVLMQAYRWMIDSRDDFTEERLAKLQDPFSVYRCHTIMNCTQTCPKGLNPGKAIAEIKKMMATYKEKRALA
Chain of complex II (Mus musculus, UniProt Q8K2B3+Q9CQA3+Q9CXV1+Q9CZB0) (Q9CZB0 30-169): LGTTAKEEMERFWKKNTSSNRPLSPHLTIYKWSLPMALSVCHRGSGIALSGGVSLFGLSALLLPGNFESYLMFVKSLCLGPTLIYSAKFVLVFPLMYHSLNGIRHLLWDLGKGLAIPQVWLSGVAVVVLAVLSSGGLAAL
Chain of complex II (Mus musculus, UniProt Q8K2B3+Q9CQA3+Q9CXV1+Q9CZB0) (Q9CXV1 57-159): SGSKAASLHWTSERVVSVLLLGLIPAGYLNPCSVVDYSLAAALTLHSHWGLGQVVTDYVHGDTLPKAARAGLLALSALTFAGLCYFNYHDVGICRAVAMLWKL

complex II [6] = biological target: complex II (Mus musculus, UniProt Q8K2B3); assay: Glutamate-driven respiration of kidney mitochondria with Complex II inhibitor malonate; conditions: malonate 5 mM, Glutamate+Malate
Chain of complex II (Mus musculus, UniProt Q8K2B3) (Q8K2B3 43-664): as the sequence (Q8K2B3 43-664) above
Chain of complex II (Mus musculus, UniProt Q8K2B3) (Q9CQA3 31-282 partner): as the sequence (Q9CQA3 31-282) above
Chain of complex II (Mus musculus, UniProt Q8K2B3) (Q9CZB0 30-169 partner): as the sequence (Q9CZB0 30-169) above
Chain of complex II (Mus musculus, UniProt Q8K2B3) (Q9CXV1 57-159 partner): as the sequence (Q9CXV1 57-159) above
Method: To study the mitochondrial function, the combination of glutamate and malate (GM) or succinate was used as substrates. Since glutamate can be converted via transamination to α-ketoglutarate and further to succinate, the present inventors used complex II inhibitor malonate to define specific complex I respiration. The basal respiration (1) was measured in mitochondria supplemented with respiratory substrates. Then ADP was added to measure the coupled respiration (2). The proton leak (3) was determined after addition of complex V inhibitor oligomycin A. The uncoupled respiration (4) was measured after supplementation with CCCP. Finally, antimycin A plus rotenone were added to assess non-mitochondrial respiration (5) as described previously [32].
Mitochondria were isolated from 12-14-week-old male C57BL6/6J mouse kidneys. For respiration studies, electrons were entered at either complex I (glutamate+malate as substrate) or complex II (succinate as substrate). […] Since kidney mitochondria are much less studied than mitochondria from other organs, the present inventors used the specific inhibitor of Complex II malonate (5 mM) to evaluate the alternative pathways for glutamate oxidation. The Complex II mediated respiration was defined as malonate-inhibited oxygen consumption while Complex I specific respiration was defined as malonate resistant oxygen consumption. […]

NCc1ccccc1O [2HOBA, 2-hydroxybenzylamine]
Ang II-induced hypertension [1]: did not attenuate | mitochondrial superoxide production ([2]; 50 nM, angiotensin II plus TNFα for 4-hours): did not affect | mitochondrial superoxide overproduction ([2]; cultured HAEC, concentration not stated (discussion)): partially attenuates

NCc1ccc(O)cc1 [4HOBA, 4-hydroxybenzylamine]
mitochondrial superoxide (mitochondrial oxidative stress) ([2]; 4HOBA high dose 10 μM, angiotensin II plus TNFα): did not protect

15-E2-isolevuglandin [15-E2-IsoLG]
complex I inactivation (complex I): 74% | complex II respiration [3]: much less affected | inhibition of state 3 respiration ([4]; 20 μM, five-minute treatment of isolated mitochondria, complex I substrates glutamate+malate): 74% | complex I-mediated respiration ([4]; acute addition of a low dose (0.5 μM printed elsewhere in the source), intact mitochondria): significantly attenuated | complex II activity inhibited (complex II [5]): 21%

O=C(O)CC(=O)O [Malonate, malonate]
inhibition of glutamate-driven respiration (complex II [6]): 58%
